According to US10835513B2, “Methods and treatments for the learning and memory deficits associated with Noonan syndrome” (The Regents of the University of California, priority 2013, dated 2020):

Key:
[1] = tested on: Pyramidal neurons in CA1; assay: Whole-cell voltage clamp recordings (AMPA:NMDA ratio, mEPSC) in AAV-PTPN11^D61G-infected hippocampi; assay type: cell-based, mice; settings: SL327 1 μM; for AMPA:NMDA current ratio: 1 hr
Description: FIG. 4 are graphs showing PTPN11^D61G overexpression enhances excitatory synaptic function through increased Ras-Erk signaling. Panel a) AMPA receptor-mediated currents were measured at the peak of the currents at −65 mV, and NMDA currents were measured 50 ms after onset at +40 mV. The average of 15 traces is shown. Scale, 100 pA and 40 ms. Panel b) Group data showing the increased AMPA:NMDA current ratio in AAV-PTPN11^D61G mice (1.51±0.11, n=10 cells from 5 mice) compared with AAV-GFP mice (0.96±0.05, n=10 cells from 5 mice, t-test, ***P<0.001). […] Two-way ANOVA, interaction between viral treatment and drug, F(1, 31)=10.53, **P<0.01. […] Panel c) Paired-pulse facilitation ratio is unaffected by PTPN11^D61G. There was no significant difference at 25 ms or 50 ms intervals between two groups (AAV-PTPN11^D61G, n=12 cells from 5 mice; AAV-GFP, n=11 cells from 5 mice). Repeated-measures ANOVA, F(1, 21)=0.010, P=0.921. Panel d) PTPN11^D61G overexpression increases excitatory synaptic function. mEPSC frequency was increased in AAV-PTPN11^D61G-infected mice compared with AAV-GFP mice, and was reversed by SL327 (1 μM) treatment without affecting on the AAV-GFP group. mEPSC frequency: GFP/Veh, 1.50±0.53, n=9; PTPN11^D61G/Veh, 4.64±0.94, n=9; GFP/SL327, 1.28±0.19, n=7; PTPN11^D61G/SL327, 2.02±0.32, n=9; Two-way ANOVA with viral treatment as between-subjects factor, F(1, 30)=10.31, **P<0.01. […] Two-way ANOVA with viral treatment as between-subjects factor, F(1, 30)=0.470, P=0.498. Scale, 20 pA and 200 ms. Panel e) Excitatory synaptic function is increased in Ptpn11^D61G/+ mice and reversed by SL327 treatment. mEPSC frequency was increased in Ptpn11^D61G/+ mice compared with WT littermates, and was reversed by SL327 (1 μM) treatment. mEPSC frequency: WT/Veh, 2.68±0.55, n=9; Ptpn11^D61G/+/Veh, 5.71±0.56, n=10; WT/SL327, 2.46±0.63, n=9; Ptpn11^D61G/+/SL327, 2.87±1.02, n=9; Two-way ANOVA with genotype as between-subjects factor, F(1, 33)=5.914, *P<0.05. […] Two-way ANOVA with genotype as between-subjects factor, F(1, 33)=0.418, P=0.839. Scale, 20 pA and 200 ms.
We examined the electrophysiological mechanism underlying the LTP impairment in AAV-PTPN11^D61G-infected mice. Increases in Ras signaling are known to facilitate AMPA receptor trafficking to the surface membrane^20. For example, expression of constitutively active Ras enhances AMPA receptor-mediated currents in hippocampal neurons and impairs LTP^20. […]
(§1) Whole-cell voltage clamp recordings were done with an Axopatch 200B amplifier (Axon Instrument) as previously described^29, 30. […] For mEPSC recordings, voltage clamp recordings were performed at −60 mV in the presence of 100 μM picrotoxin and 1 μM TTX. mIPSCs were measured at +10 mV in the presence of 1 mM kynurenic acid and 1 μM TTX. […]

[2] = tested on: pyramidal neurons of Ptpn11^D61G/+ mice; assay: Whole-cell voltage clamp mEPSC recordings in Ptpn11^D61G/+ mice; assay type: cell-based; settings: SL327 1 μM
Description: FIG. 4 are graphs showing PTPN11^D61G overexpression enhances excitatory synaptic function through increased Ras-Erk signaling. Panel a) AMPA receptor-mediated currents were measured at the peak of the currents at −65 mV, and NMDA currents were measured 50 ms after onset at +40 mV. The average of 15 traces is shown. Scale, 100 pA and 40 ms. Panel b) Group data showing the increased AMPA:NMDA current ratio in AAV-PTPN11^D61G mice (1.51±0.11, n=10 cells from 5 mice) compared with AAV-GFP mice (0.96±0.05, n=10 cells from 5 mice, t-test, ***P<0.001). […] Two-way ANOVA, interaction between viral treatment and drug, F(1, 31)=10.53, **P<0.01. […] Panel c) Paired-pulse facilitation ratio is unaffected by PTPN11^D61G. There was no significant difference at 25 ms or 50 ms intervals between two groups (AAV-PTPN11^D61G, n=12 cells from 5 mice; AAV-GFP, n=11 cells from 5 mice). Repeated-measures ANOVA, F(1, 21)=0.010, P=0.921. […]
as §1

N#C/C(=C(/N)Sc1ccc(N)cc1)c1ccccc1C(F)(F)F [SL327]
mEPSC frequency ([1]; AAV-GFP mice): 1.28±0.19
mEPSC frequency ([1]; AAV-PTPN11^D61G-infected mice): 2.02±0.32
AMPA:NMDA current ratio ([1]; GFP group): 1.08±0.07
AMPA:NMDA current ratio ([1]; PTPN11^D61G group): 1.07±0.11
mEPSC frequency ([2]; Ptpn11^D61G/+ mice): 2.87±1.02
mEPSC frequency ([2]; WT littermates): 2.46±0.63
